Measurements: patent US9062041B2 (Bayer Intellectual Property GmbH, priority 2011, dated 2015)

Tests used:
Type in all cases: cell-based
human PGD receptor = target: T1, human PGD receptor (Homo sapiens, UniProt Q13258); experiment: cAMP antagonism test on the human prostaglandin D receptor (HTRF cAMP detection); details: selectivity towards hDP, IC50 measured by cAMP antagonism test
T1 sequence (Q13258 1-359): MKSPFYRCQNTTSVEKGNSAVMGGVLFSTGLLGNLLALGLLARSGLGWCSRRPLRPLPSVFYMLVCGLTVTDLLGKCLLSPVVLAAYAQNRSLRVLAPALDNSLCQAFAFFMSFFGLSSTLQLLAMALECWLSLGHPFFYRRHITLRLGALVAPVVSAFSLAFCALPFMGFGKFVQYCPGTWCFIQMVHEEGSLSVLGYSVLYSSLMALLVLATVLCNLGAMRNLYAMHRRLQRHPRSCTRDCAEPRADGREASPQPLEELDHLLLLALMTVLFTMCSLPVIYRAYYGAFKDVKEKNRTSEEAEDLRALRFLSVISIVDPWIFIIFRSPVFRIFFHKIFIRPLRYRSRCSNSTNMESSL
Outline: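 HTRF competition read-out (665/620 nm ratio ×10000), where higher FRET means less cAMP, i.e. antagonism. Compounds (0.8 nM–16.5 μM) were preincubated 20 min at RT with cells and cAMP-d2, PGD2 (3× solution, 6 nM) in IBMX-containing PBS added for 30 min at RT, then cells lysed 20 min.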

[1] = target: EP4 subtype of the human PGE2 receptor (Homo sapiens, UniProt P35408); experiment: cAMP antagonism test on the human EP4 receptor (HTRF cAMP detection); details: selectivity towards hEP4, IC50 measured by cAMP antagonism test
Chain of EP4 subtype of the human PGE2 receptor (P35408 whole entry): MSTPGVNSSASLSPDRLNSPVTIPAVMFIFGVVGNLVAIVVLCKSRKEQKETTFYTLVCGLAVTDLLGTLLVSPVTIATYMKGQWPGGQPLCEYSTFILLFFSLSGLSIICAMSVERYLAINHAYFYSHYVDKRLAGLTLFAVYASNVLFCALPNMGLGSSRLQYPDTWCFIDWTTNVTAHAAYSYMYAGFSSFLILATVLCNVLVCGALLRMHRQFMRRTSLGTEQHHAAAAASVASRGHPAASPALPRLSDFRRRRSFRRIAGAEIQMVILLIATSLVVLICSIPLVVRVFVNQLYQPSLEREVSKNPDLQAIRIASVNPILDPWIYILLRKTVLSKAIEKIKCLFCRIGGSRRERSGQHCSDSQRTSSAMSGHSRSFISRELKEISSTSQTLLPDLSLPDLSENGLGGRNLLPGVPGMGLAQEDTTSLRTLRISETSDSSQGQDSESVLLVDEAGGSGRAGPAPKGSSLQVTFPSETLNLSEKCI
Outline: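 Competitive HTRF cAMP read-out (cAMP-d2 vs Eu-cryptate anti-cAMP antibody, 665/620 nm ratio) on lysed human EP4 cells. Compound (0.8 nM–16.5 μM) applied 20 min at RT before 60 min PGE2 challenge (3× solution 0.3 nM, IBMX present); 20 min lysis precedes reading.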

[2] = target: EP2 subtype of the human PGE2 receptor (Homo sapiens, UniProt P43116); experiment: cAMP antagonism test on the human EP2 receptor (HTRF cAMP detection); details: hEP2 receptor, read-out: Antagonism hEP2 IC50
Chain of EP2 subtype of the human PGE2 receptor (P43116 whole entry): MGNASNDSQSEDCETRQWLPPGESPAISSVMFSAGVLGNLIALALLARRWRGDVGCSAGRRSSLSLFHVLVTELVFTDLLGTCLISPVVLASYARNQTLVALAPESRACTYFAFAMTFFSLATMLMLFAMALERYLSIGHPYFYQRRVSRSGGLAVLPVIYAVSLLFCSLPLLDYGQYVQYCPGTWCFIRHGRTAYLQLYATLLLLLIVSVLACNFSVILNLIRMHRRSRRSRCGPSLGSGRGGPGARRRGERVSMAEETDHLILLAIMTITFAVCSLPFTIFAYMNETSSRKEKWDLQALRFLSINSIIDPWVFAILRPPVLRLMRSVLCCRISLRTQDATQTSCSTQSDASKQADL
Outline: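 Read-out is a competitive HTRF for cAMP: lysate cAMP displaces cAMP-d2 from Eu cryptate-labelled antibody, and antagonism raises the 665/620 nm ratio. Compound (0.8 nM–16.5 μM) added to EP2 cells 20 min at RT before 60 min PGE2 challenge (3× stock 1.5 nM) with IBMX, followed by 20 min lysis.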

SMILES	Selectivity hEP2/hDP (human PGD receptor)	Selectivity hEP2/hEP4 [1]	IC50 [2]
Cc1c(C(=O)NCCOCC2CC2)ccc2nn(CC3CCN(C(=O)c4ccc(Oc5ccc(F)cc5)cc4)CC3)cc12 [Example 86, N-[2-(cyclopropyl-methoxy)ethyl]-2-({1-[4-(4-fluorophenoxy)-benzoyl]piperidin-4-yl}methyl)-4-methyl-2H-indazol-5-carboxamide]	xxx (xxx > 100)	xxx (xxx > 100)	0.0154 µM
Cc1cc2nn(CC3CN(C(=O)c4ccc(S(F)(F)(F)(F)F)cc4)C3)cc2cc1C(=O)NCC(F)(F)F [Example 188, 6-methyl-2-({1-[4-(pentafluoro-λ^6-sulphanyl)benzoyl]azetidin-3-yl}methyl)-N-(2,2,2-trifluoroethyl)-2H-indazol-5-carboxamide]	xxx (xxx > 100)	xxx (xxx > 100)	0.149 µM
Cc1c(C(=O)NCC(C)OCC2CC2)ccc2nn(CC3CCN(C(=O)c4ccc(Oc5ccc(F)cc5)cc4)CC3)cc12 (racemic) [Example 103, (+/−)-N-[2-(cyclo-propylmethoxy)-propyl]-2-({1-[4-(4-fluorophenoxy)-benzoyl]piperidin-4-yl}-methyl)-4-methyl-2H-indazol-5-carboxamide]	xx (xx: 10-100)	xx (xx: 10-100)	0.595 µM
Cc1c(C(=O)NCC2COCCO2)ccc2nn(CC3CCN(C(=O)c4ccc(Oc5ccc(C(F)(F)F)cc5)cc4)CC3)cc12 (racemic) [Example 249, (+/−)-N-(1,4-dioxan-2-ylmethyl)-4-methyl-2-[(1-{4-[4-(trifluoromethyl)phenoxy]benzoyl}piperidin-4-yl)methyl]-2H-indazol-5-carboxamide]	xxx (xxx > 100)	xxx (xxx > 100)	0.0112 µM
COCCNC(=O)c1ccc2nn(CC3CCN(C(=O)c4ccc(OC(F)(F)F)cc4)CC3)cc2c1C [Example 55, N-(2-methoxyethyl)-4-methyl-2-({1-[4-(trifluoromethoxy)benzoyl]piperidin-4-yl}methyl)-2H-indazol-5-carboxamide]	xxx (xxx > 100)	xxx (xxx > 100)	0.00967 µM
COCCNC(=O)c1ccc2nn(CC3CN(C(=O)c4ccc(C(F)(F)F)cc4F)C3)cc2c1OC [Example 255, 2-({1-[2-fluoro-4-(trifluoromethyl)benzoyl]azetidin-3-yl}methyl)-4-methoxy-N-(2-methoxyethyl)-2H-indazol-5-carboxamide]	xxx (xxx > 100)	xxx (xxx > 100)	0.0835 µM
COc1c(C(=O)NCCN2CCC(F)(F)C2)ccc2nn(CC3CN(C(=O)c4ccc(Cl)cc4)C3)cc12 [Example 260, 2-{[1-(4-chlorobenzoyl)azetidin-3-yl]methyl}-N-[2-(3,3-difluoropyrrolidin-1-yl)ethyl]-4-methoxy-2H-indazol-5-carboxamide]	xxx (xxx > 100)	xxx (xxx > 100)	0.00802 µM
Cc1c(C(=O)NCC2COCCO2)ccc2nn(CC3CCN(C(=O)c4ccc(Oc5ccc(C(F)(F)F)cc5)cc4)CC3)cc12 (single isomer, unassigned) [Example 419, (R or S)—N-(1,4-dioxan-2-ylmethyl)-4-methyl-2-[(1-{4-[4-(trifluoromethyl)-phenoxy]benzoyl}piperidin-4-yl)methyl]-2H-indazol-5-carboxamide]	xxx (xxx > 100)	xxx (xxx > 100)	0.0109 µM
COCCNC(=O)c1ccc2nn(CC3CCN(C(=O)c4ccc(-c5ccc(Cl)cc5F)cc4)CC3)cc2c1C [Example 383, 2-({1-[(4′-chloro-2′-fluorobiphenyl-4-yl)carbonyl]piperidin-4-yl}methyl)-N-(2-methoxyethyl)-4-methyl-2H-indazol-5-carboxamide]	xxx (xxx > 100)	xxx (xxx > 100)	0.00578 µM
COCCNC(=O)c1ccc2nn(CC3CCN(C(=O)c4ccc(S(=O)(=O)C(F)(F)F)cc4)CC3)cc2c1C [Example 25, N-(2-methoxyethyl)-4-methyl-2-[(1-{4-[(trifluoromethyl)-sulphonyl]benzoyl}-piperidin-4-yl)-methyl]-2H-indazol-5-carboxamide]	xxx (xxx > 100)	xxx (xxx > 100)	0.0252 µM
Cc1cc2nn(CC3CN(C(=O)c4ccc(Oc5ccc(F)cc5)cc4)C3)cc2cc1C(=O)NCCSC(F)(F)F [Example 199, 2-({1-[4-(4-fluorophenoxy)benzoyl]azetidin-3-yl}methyl)-6-methyl-N-{2-[(trifluoromethyl)sulphanyl]ethyl}-2H-indazol-5-carboxamide]	xxx (xxx > 100)	xxx (xxx > 100)	0.0971 µM
Cc1c(C(=O)NCC(F)(F)F)ccc2nn(CC3CN(C(=O)c4ccc(Oc5ccc(F)cc5)cc4)C3)cc12 [Example 160, 2-({1-[4-(4-fluorophenoxy)benzoyl]azetidin-3-yl}methyl)-4-methyl-N-(2,2,2-trifluoroethyl)-2H-indazol-5-carboxamide]	xxx (xxx > 100)	xxx (xxx > 100)	0.0829 µM
COCCNC(=O)c1ccc2nn(CC3CCN(C(=O)c4ccc(N5CCCC5)cc4F)CC3)cc2c1C [Example 41, 2-({1-[2-fluoro-4-(pyrrolidin-1-yl)-benzoyl]piperidin-4-yl}methyl)-N-(2-methoxyethyl)-4-methyl-2H-indazol-5-carboxamide]	xxx (xxx > 100)	xxx (xxx > 100)	0.00562 µM
Cc1c(C(=O)NCC(F)(F)F)ccc2nn(CC3CCN(C(=O)c4ccc(-c5ccc(C(F)(F)F)nc5)cc4)CC3)cc12 [Example 321, 4-methyl-N-(2,2,2-trifluoroethyl)-2-[(1-{4-[6-(trifluoromethyl)pyridin-3-yl]-benzoyl}piperidin-4-yl)methyl]-2H-indazol-5-carboxamide]	xxx (xxx > 100)	xxx (xxx > 100)	0.101 µM
COCCNC(=O)c1ccc2nn(CC3CCN(C(=O)c4ccc(Oc5ccc(OC)cc5)cc4)CC3)cc2c1C [Example 18, N-(2-methoxyethyl)-2-({1-[4-(4-methoxy-phenoxy)benzoyl]-piperidin-4-yl}-methyl)-4-methyl-2H-indazol-5-carboxamide]	xxx (xxx > 100)	xxx (xxx > 100)	0.00766 µM
Cc1c(C(=O)NCC(F)(F)F)ccc2nn(CC3CN(C(=O)c4ccc(Cl)cc4)C3)cc12 [Example 129, 2-{[1-(4-chlorobenzoyl)azetidin-3-yl]methyl}-4-methyl-N-(2,2,2-trifluoroethyl)-2H-indazol-5-carboxamide]	xx (xx: 10-100)	xx (xx: 10-100)	0.309 µM
COC(C)CNC(=O)c1cc2cn(CC3CN(C(=O)c4ccc(OC(F)(F)F)cc4)C3)nc2cc1C (racemic) [Example 193, (+/−)-N-(2-methoxypropyl)-6-methyl-2-({1-[4-(trifluoromethoxy)benzoyl]-azetidin-3-yl}methyl)-2H-indazol-5-carboxamide]	xxx (xxx > 100)	xxx (xxx > 100)	0.145 µM
COCCNC(=O)c1ccc2nn(CC3CCN(C(=O)c4ccc(-c5ccncc5)c(C)c4)CC3)cc2c1C [Example 393, N-(2-methoxyethyl)-4-methyl-2-({1-[3-methyl-4-(4-pyridyl)benzoyl]piperidin-4-yl}methyl)-2H-indazol-5-carboxamide]	xxx (xxx > 100)	xxx (xxx > 100)	0.05 µM
Cc1cc2nn(CC3CN(C(=O)c4ccc(Cl)cc4)C3)cc2cc1C(=O)NCCSC(F)(F)F [Example 189, 2-{[1-(4-chlorobenzoyl)azetidin-3-yl]methyl}-6-methyl-N-{2-[(trifluoromethyl)sulphanyl]ethyl}-2H-indazol-5-carboxamide]	xxx (xxx > 100)	xxx (xxx > 100)	0.0336 µM
Cc1c(C(=O)NCC(C)OCC2CC2)ccc2nn(CC3CCN(C(=O)c4ccc(C5CC5)cc4)CC3)cc12 (racemic) [Example 106, (+/−)-2-{[1-(4-cyclopropylbenzoyl)piperidin-4-yl]-methyl}-N-[2-(cyclopropyl-methoxy)propyl]-4-methyl-2H-indazol-5-carboxamide]	xxx (xxx > 100)	xxx (xxx > 100)	0.15 µM
